The results in this text go back to patent publication US20160368919A1, “NOVEL PYRIDINE PYRAZINONES AS BET-FAMILY BROMODOMAIN INHIBITORS” (Pfizer Inc., priority 2015, published 2016).

Each structure is given as a SMILES string.

The IC50 is the midpoint of a concentration-inhibition curve.

One assay deals with T1, BRD4 BD1 (Homo sapiens, UniProt O60885).
T1 construct: His-tagged BRD4 BD1 (44-160); made in house
The assay can be described thus: BRD4 BD1 Fluorescence Polarization (FP) competition binding assay. The conditions noted are these: BRD4 BD1 40 nM, probe PFI-411FP 2 nM. The protocol: Compound binding to BRD4 BD1 was assessed with a FP competition binding assay. […] All assay components were diluted in 50 mM HEPES pH 7.4 containing 0.08% bovine serum albumin (assay buffer). To start the assay, 8 μL of BRD4 BD1 was added to each well of a low volume 384-well black flat bottom microtiter plate (Corning 3820) containing 4 μl of various concentrations of test compound (each plate also contained positive and negative control wells to define the upper and lower limits of the assay signal). After addition of BRD4 BD1, the assay plate was incubated at room temperature (RT, 20° C.). After 15 minutes, 4 μL of PFI-411FP was added to each well and the assay plate was placed in the dark at RT. The final assay concentration (FAC) of PFI-411FP was 2 nM, the FAC of BRD4 BD1 was 40 nM, the FAC of test compound ranged from 120 to 0.0012 μM and the FAC of DMSO was 0.4%. After 60 min, polarization values were measured with an Envision 2103 multilabel reader (Perkin Elmer) using a Cy5 dual enhanced mirror and excitation at 620 nm and emission at 688 nm. The percent (%) effect was calculated for each concentration of test compound and was relative to the amount of polarization signal produced by the positive and negative control wells contained within each assay plate. The concentrations and % effect values for test compounds were plotted versus each other with a proprietary curve fitting program using a four-parameter logistic dose response equation and the concentration of compound required for 50% effect (IC50) was determined. The Ki values of competitive inhibitors were calculated using the equation described by Nikolovska-Coleska et al. (Development and optimization of a binding assay for the XIAP BIR3 domain using fluorescence polarization. Analytical Biochemistry (2004) 332: 261-273).
(Fluorescence polarisation rises when a labelled molecule tumbles more slowly, as on binding a larger partner.)

The test system of assay [1] is LPS-induced IL-6 production in human whole blood. The assay can be described thus: IL-6 human whole blood (HWB) assay, LPS-stimulated, HTRF detection. Format: cell-based. The conditions noted are these: 1 ng/ml LPS, 4 hours. The method, then:
Compound effect on IL-6 production was determined using lipopolysaccharide (LPS)-stimulated human whole blood and an HTRF (Homogeneous Time-Resolved Fluorescence) IL-6 detection kit (Human IL6 HTRF Assay CisBio 62IL6PEC). HWB was collected by venous puncture from healthy donors, transferred to a 50 ml polypropylene tube containing sodium heparin (14.3 units per mL of HWB) and then placed in a 37° C. water bath until use. To start the assay, 80 μL of heparin-treated HWB containing 1 ng/ml of LPS (equivalent to LPS ˜EC80 with regard to stimulation of IL-6 production in HWB under these assay conditions) was added to each well of a 384-well, sterile, endotoxin-free, polypropylene plate (Greiner 781281) containing 160 nL of various concentrations of test compound (each plate also contained positive and negative control wells to define the upper and lower limits of the assay signal). The plate was then placed in a thermoshaker incubator set to 370C (Boekel 270440). The final assay concentration (FAC) of test compound ranged from 60 to 0.0006 μM and the FAC of DMSO was 0.2%. After 4 hours, the assay plate was removed from the incubator and centrifuged at 700×g for 10 minutes. 5 μL of the resulting upper plasma layer was removed from each well and diluted 1:2 with 1×Dulbecco's phosphate buffered saline (DPBS). 5 μL of this diluted plasma was then transferred to a white 384-well low volume assay plate (Greiner 784080) containing 5 μL of combined anti-IL-6-Cryptate and anti-IL-6-XL665 detection antibodies (per manufacturer's protocol). The plate was then sealed with a Top Seal (Perkin Elmer 6005185) and incubated at room temperature (RT, 20° C.). After 16-18 hrs (overnight), the HTRF assay signal was read on an Envision 2103 plate reader using a Lance Delfia Dual/Bias mirror TRF laser excitation and emission was measured at 665 nm and 615 nm respectively. The percent (%) effect was calculated for each concentration of test compound and was relative to the amount of HTRF signal produced by the positive and negative control wells contained within each assay plate. The concentrations and % effect values for test compounds were plotted versus each other with a proprietary curve fitting program using a four-parameter logistic dose response equation and the concentration of compound required for 50% effect (IC50) was determined.
(In general: Time-resolved FRET reads energy transfer from a long-lived donor to a nearby acceptor.)

On to `COc1ccccc1[C@H](C)n1c(=O)c(NCCC(=O)O)nc2ccc(N(C)C(C)=O)nc21` [Example 1, N-{6-[acetyl(methyl)amino]-4-[(1S)-1-(2-methoxyphenyl)ethyl]-3-oxo-3,4-dihydropyrido[2,3-b]pyrazin-2-yl}-beta-alanine], for which the IC50 was determined as 0.73 µM at BRD4 BD1 and 38.4 µM in assay [1]. With `CCN(C(C)=O)c1ccc2nc(NCCC(=O)O)c(=O)n([C@@H](C)c3ccccc3OC)c2n1` [Example 2, N-{6-[acetyl(ethyl)amino]-4-[(1S)-1-(2-methoxyphenyl)ethyl]-3-oxo-3,4-dihydropyrido[2,3-b]pyrazin-2-yl}-beta-alanine], the IC50 on BRD4 BD1 was determined as 2.71 µM. In the case of `CC[C@@H](c1ccccc1)n1c(=O)c(NCCC(=O)O)nc2ccc(N(C)C(C)=O)nc21` [Example 3, N-{6-[acetyl(methyl)amino]-3-oxo-4-[(1S)-1-phenylpropyl]-3,4-dihydropyrido[2,3-b]pyrazin-2-yl}-beta-alanine], the IC50 on BRD4 BD1 stood at 0.117 µM; in assay [1], 2.05 µM. The matching figures for `CC[C@@H](c1ccccc1)n1c(=O)c(NCCC(=O)O)nc2ccc(N(C)C(=O)CO)nc21` [Example 4, N-{6-[(hydroxyacetyl)(methyl)amino]-3-oxo-4-[(1S)-1-phenylpropyl]-3,4-dihydropyrido[2,3-b]pyrazin-2-yl}-beta-alanine]: 0.956 µM and 14.1 µM.

Consider `CNc1nc2ccc(N(C)C(C)=O)nc2n([C@@H](C)c2ccccc2OC)c1=O` [Example 5, N-{4-[(1S)-1-(2-methoxyphenyl)ethyl]-2-(methylamino)-3-oxo-3,4-dihydropyrido[2,3-b]pyrazin-6-yl}-N-methylacetamide], for which the IC50 on BRD4 BD1 came out at 0.653 µM; in assay [1] it was 1.58 µM.

For `CC[C@@H](c1ccccc1)n1c(=O)c(NCCC(=O)O)nc2ccc(N(C)C(=O)C(C)C)nc21` [Example 6, N-{6-[methyl(2-methylpropanoyl)amino]-3-oxo-4-[(1S)-1-phenylpropyl]-3,4-dihydropyrido[2,3-b]pyrazin-2-yl}-beta-alanine], the results for the IC50 (on BRD4 BD1; in assay [1]) were 0.155 µM and 1.42 µM, respectively. As to `CCCC(=O)N(C)c1ccc2nc(NCCC(=O)O)c(=O)n([C@@H](CC)c3ccccc3)c2n1` [Example 7, N-{6-[butanoyl(methyl)amino]-3-oxo-4-[(1S)-1-phenylpropyl]-3,4-dihydropyrido[2,3-b]pyrazin-2-yl}-beta-alanine], the IC50 on BRD4 BD1 stood at 0.13 µM; in assay [1] it was 2.39 µM.

As to `CC[C@@H](c1ccccc1)n1c(=O)c(NCCC(=O)O)nc2ccc(N(C)C(=O)C3CCC3)nc21` [Example 8], the IC50 at BRD4 BD1 was 0.122 µM; in assay [1] it was 1.8 µM.

Take `CC[C@@H](c1ccccc1)n1c(=O)c(NCCC(=O)O)nc2ccc(N(C)C(=O)NC)nc21` [Example 9, N-{6-[methyl(methylcarbamoyl)amino]-3-oxo-4-[(1S)-1-phenylpropyl]-3,4-dihydropyrido[2,3-b]pyrazin-2-yl}-beta-alanine]: the figures for the half-inhibitory concentration (IC50) (on BRD4 BD1; in assay [1]) were 0.15 µM and 3.83 µM, respectively.

For the compound `CCC(=O)N(C)c1ccc2nc(NCCC(=O)O)c(=O)n([C@@H](CC)c3ccccn3)c2n1` [Example 11, N-{6-[methyl(propanoyl)amino]-3-oxo-4-[(1S)-1-(pyridin-2-yl)propyl]-3,4-dihydropyrido[2,3-b]pyrazin-2-yl}-beta-alanine], the IC50 on BRD4 BD1 is 0.251 µM; in assay [1], 2.68 µM.

The compound `CCC(=O)N(C)c1ccc2nc(NCCC(=O)O)c(=O)n([C@@H]3COC[C@H]3c3ccccc3)c2n1` [Example 15, N-{6-[methyl(propanoyl)amino]-3-oxo-4-[(3S,4S)-4-phenyltetrahydrofuran-3-yl]-3,4-dihydropyrido[2,3-b]pyrazin-2-yl}-beta-alanine] had an IC50 at BRD4 BD1 of 10.2 µM. In the case of `CC[C@H](COC)n1c(=O)c(NCCC(=O)O)nc2ccc(N(C)C(C)=O)nc21` [Example 16, N-{6-[acetyl(methyl)amino]-4-[(2R)-1-methoxybutan-2-yl]-3-oxo-3,4-dihydropyrido[2,3-b]pyrazin-2-yl}-beta-alanine], the IC50 on BRD4 BD1 was 3.88 µM.

The compound `CCC(=O)N(C)c1ccc2nc(NCC(=O)NC)c(=O)n([C@H](CC)COC)c2n1` [Example 18, N-(4-[(2R)-1-methoxybutan-2-yl]-2-{[2-(methylamino)-2-oxoethyl]amino}-3-oxo-3,4-dihydropyrido[2,3-b]pyrazin-6-yl)-N-methylpropanamide] displayed an IC50 at BRD4 BD1 of 4.19 µM.

Turning to `CCC(=O)N(C)c1ccc2nc(NCC(=O)NC)c(=O)n(C(COC)COC)c2n1` [Example 19, N-(4-(1,3-dimethoxypropan-2-yl)-2-((2-(methylamino)-2-oxoethyl)amino)-3-oxo-3,4-dihydropyrido[2,3-b]pyrazin-6-yl)-N-methylpropionamide], the IC50 at BRD4 BD1 worked out at 4.03 µM. The compound `CCC(=O)N(C)c1ccc2nc(NCCC(=O)O)c(=O)n(C3(C4CCCC4)CC3)c2n1` [Example 24, N-{4-(1-cyclopentylcyclopropyl)-6-[methyl(propanoyl)amino]-3-oxo-3,4-dihdropyrido[2,3-b]pyrazin-2-yl}-beta-alanine] gave a concentration for half-maximal inhibition (IC50) on BRD4 BD1 of 1.58 µM. The same measure, in the same setting: to `CC[C@@H](c1ccccc1)n1c(=O)c(NCCC(=O)O)nc2ccc(N(C)C(=O)C3CC(C)(C)C3)nc21` [Example 25, N-(6-{[(3,3-dimethylcyclobutyl)carbonyl](methyl)amino}-3-oxo-4-[(1S)-1-phenylpropyl]-3,4-dihydropyrido[2,3-b]pyrazin-2-yl)-beta-alanine] belongs 6.37 µM; to `CC[C@@H](c1ccccc1)n1c(=O)c(NCCC(=O)O)nc2ccc(N(C)C(=O)C3CC(F)(F)C3)nc21` [Example 26, N-(6-{[(3,3-difluorocyclobutyl)carbonyl](methyl)amino}-3-oxo-4-[(1S)-1-phenylpropyl]-3,4-dihydropyrido[2,3-b]pyrazin-2-yl)-beta-alanine], 7.59 µM. `CC[C@@H](c1ccccc1)n1c(=O)c(NCCC(=O)O)nc2ccc(N(C)C(=O)C3COC3)nc21` [Example 27, N-{6-[methyl(oxetan-3-ylcarbonyl)amino]-3-oxo-4-[(1S)-1-phenylpropyl]-3,4-dihydropyrido[2,3-b]pyrazin-2-yl}-beta-alanine] registered an IC50 on BRD4 BD1 of 1.5 µM.

For the compound `CCOc1ccccc1Cn1c(=O)c(NCCN2CCOCC2)nc2ccc(-c3c(C)noc3C)nc21` [Example 36, 6-(3,5-dimethyl-1,2-oxazol-4-yl)-4-(2-ethoxybenzyl)-2-{[2-(morpholin-4-yl)ethyl]amino}pyrido[2,3-b]pyrazin-3(4H)-one], the IC50 on BRD4 BD1 is 2.48 µM.

The compound `Cc1noc(C)c1-c1ccc2nc(NCCN3CCOCC3)c(=O)n(Cc3ccccc3)c2n1` [Example 37, 4-benzyl-6-(3,5-dimethyl-1,2-oxazol-4-yl)-2-{[2-(morpholin-4-yl)ethyl]amino}pyrido[2,3-b]pyrazin-3(4H)-one] registered an IC50 at BRD4 BD1 of 0.474 µM. With `CC[C@H](c1ccccc1)n1c(=O)c(NCCN2CCOCC2)nc2ccc(-c3c(C)noc3C)nc21` [Example 38, 6-(3,5-dimethyl-1,2-oxazol-4-yl)-2-{[2-(morpholin-4-yl)ethyl]amino}-4-[(1R)-1-phenylpropyl]pyrido[2,3-b]pyrazin-3(4H)-one], at BRD4 BD1, the IC50 amounted to 0.532 µM. Same read-out and setting: to `Cc1noc(C)c1-c1ccc2nc(NCCC(=O)O)c(=O)n(C3CCOCC3)c2n1` [Example 49, N-[6-(3,5-dimethyl-1,2-oxazol-4-yl)-3-oxo-4-(tetrahydro-2H-pyran-4-yl)-3,4-dihydropyrido[2,3-b]pyrazin-2-yl]-beta-alanine] belongs 4.87 µM.
